# Test results taken from ChEMBL document CHEMBL4396933, “Design, synthesis and biological evaluation of 3,5-dimethylisoxazole and pyridone derivatives as BRD4 inhibitors” (Bioorg Med Chem Lett, 2019).
# pIC50: −log10 of the molar value.
# What was measured:
# [1] = target: T1, Bromodomain-containing protein 4 (Homo sapiens, UniProt O60885); assay: Inhibition of BRD4 (unknown origin) at 1 uM relative to control
# [2] = system: MV4-11; assay: Antiproliferative activity against human MV4-11 cells assessed as reduction in cell viability incubated for 72 hrs by CellTiter-Glo luminescent cell viability assay; assay type: functional, cell-based; conditions: MV4-11, 72 h
# [3] = target: T1, Bromodomain-containing protein 4; assay: Inhibition of BRD4 bromodomain 1/2 (unknown origin) by alphascreen assay
# [4] = system: HCT-116; assay: Antiproliferative activity against human HCT116 cells; assay type: functional, cell-based
# [5] = system: SW480; assay: Antiproliferative activity against human SW480 cells; assay type: functional, cell-based
# [6] = system: DU-145; assay: Antiproliferative activity against human DU145 cells; assay type: functional, cell-based
# [7] = system: CAPAN-1; assay: Antiproliferative activity against human Capan1 cells; assay type: functional, cell-based
# [8] = system: BT-474; assay: Antiproliferative activity against human BT474 cells; assay type: functional, cell-based
# [9] = system: L02; assay: Cytotoxicity against human LO2 cells at 0.5 to 40 uM incubated for 72 hrs by MTT assay; assay type: cell-based; conditions: l02, 72 h
# [10] = target: T1, Bromodomain-containing protein 4; assay: Inhibition of BRD4 in human MV4-11 cells assessed as downregulation of c-Myc protein expression incubated for 48 hrs by Western blot method; assay type: cell-based
# [11] = system: MV4-11; assay: Induction of cell cycle arrest in human MV4-11 cells assessed as increase in accumulation at G0/G1 phase incubated for 48 hrs by PI staining based flow cytometric analysis; assay type: functional
smiles,measurement,setting,value
COc1cc(F)ccc1Nc1nn(C2CCCCO2)c2ccc(-c3c(C)noc3C)cc12 (centres undefined),inhibition,[1],< 20%
same,pIC50,[2],4.76
CNc1cc(-c2ccc3cnn(Cc4ccc(C(F)(F)F)cc4)c3c2)cn(C)c1=O,pIC50,[2],5.36
same,pIC50,[3],5.62
Cc1noc(C)c1-c1ccc2c(Nc3ccc(F)cc3)nn(C3CCCCO3)c2c1 (centres undefined),inhibition,[1],< 20%
same,pIC50,[2],5.00
CNc1cc(-c2ccc3cnn(Cc4ccc(F)c(F)c4)c3c2)cn(C)c1=O,pIC50,[2],6.49
same,pIC50,[3],6.07
same,pIC50,[4],5.52
same,pIC50,[5],5.08
same,pIC50,[6],5.32
same,pIC50,[7],5.43
same,pIC50,[8],5.06
same,Activity,[9],Non-Toxic
same,inhibition,[10],Dose-dependent effect
same,Activity,[11],Dose-dependent effect
CNc1cc(-c2ccc3cnn(Cc4ccc(F)cc4)c3c2)cn(C)c1=O,pIC50,[2],5.62
same,pIC50,[3],5.85
COc1ccc(C)c(C2CN(Cc3ccc(F)cc3)c3nc(-c4c(C)noc4C)ncc32)c1 (centres undefined),inhibition,[1],< 20%
CNc1cc(-c2ccc3cnn(Cc4cc(OC)cc(OC)c4)c3c2)cn(C)c1=O,pIC50,[2],6.70 to 6.72
same,pIC50,[3],6.26
same,pIC50,[4],5.54
same,pIC50,[5],5.13
same,pIC50,[6],5.59
same,pIC50,[7],5.42
same,pIC50,[8],5.07
CCOC(=O)Cn1ncc2ccc(-c3cc(NC)c(=O)n(C)c3)cc21,pIC50,[2],5.06
same,pIC50,[3],5.72
Cc1noc(C)c1-c1ccc2c(c1)c(Nc1ccc(F)cc1)nn2C1CCCCO1 (centres undefined),inhibition,[1],< 20%
COc1ccc(Cn2nc(Nc3cccc(C(C)C)c3)c3ccc(-c4c(C)noc4C)cc32)cc1,inhibition,[1],< 20%
same,pIC50,[2],5.09
COc1cc2cnn(Cc3ccc(F)cc3)c2cc1-c1c(C)noc1C,inhibition,[1],45%
same,pIC50,[2],5.72
COc1ccc(Nc2nn(Cc3ccc(C)cc3)c3cc(-c4c(C)noc4C)ccc23)cc1,inhibition,[1],< 20%
same,pIC50,[2],4.92
CCNc1cc(-c2ccc3cnn(Cc4cc(OC)cc(OC)c4)c3c2)cn(C)c1=O,pIC50,[2],5.59
same,pIC50,[3],5.74
COc1cc(F)ccc1Nc1nn(C2CCCCO2)c2cc(-c3c(C)noc3C)ccc12 (centres undefined),inhibition,[1],< 20%
same,pIC50,[2],5.07
Cc1noc(C)c1-c1ccc2c(Nc3ccc(F)cc3)n[nH]c2c1,inhibition,[1],< 20%
same,pIC50,[2],5.11
Cc1ccc(Cn2nc(Nc3ccc(C#N)cc3)c3ccc(-c4c(C)noc4C)cc32)cc1,inhibition,[1],< 20%
same,pIC50,[2],5.24
COc1cc(Nc2nn(C3CCCCO3)c3cc(-c4c(C)noc4C)ccc23)ccc1F (centres undefined),inhibition,[1],< 20%
same,pIC50,[2],5.03
CNc1cc(-c2ccc3cnn(Cc4ccc(OC)c(F)c4)c3c2)cn(C)c1=O,pIC50,[2],5.30
same,pIC50,[3],5.85
COc1ccc(Cn2nc(Nc3ccc(F)cc3)c3ccc(-c4c(C)noc4C)cc32)cc1,inhibition,[1],< 20%
same,pIC50,[2],5.04
Cc1noc(C)c1-c1ccc2c(Nc3ccc(Cl)cc3)nn(C3CCCCO3)c2c1 (centres undefined),inhibition,[1],< 20%
same,pIC50,[2],5.13
Cc1noc(C)c1-c1ccc(-n2ncc3ccc(-c4c(C)noc4C)cc32)c(Cl)c1,inhibition,[1],33%
same,pIC50,[2],5.55
Cc1sc2c(c1C)C(c1ccc(Cl)cc1)=N[C@@H](CC(=O)OC(C)(C)C)c1nnc(C)n1-2,pIC50,[2],7.05 to 7.22
same,pIC50,[4],6.40
same,pIC50,[5],4.85
same,pIC50,[6],6.70
same,pIC50,[7],6.10
same,pIC50,[8],5.77
CNc1cc(-c2ccc3cnn(Cc4ccc(F)c([N+](=O)[O-])c4)c3c2)cn(C)c1=O,pIC50,[2],6.89
same,pIC50,[3],6.10
same,pIC50,[4],5.59
same,pIC50,[5],5.00
same,pIC50,[6],5.47
same,pIC50,[7],5.40
same,pIC50,[8],5.19
CCNc1cc(-c2ccc3cnn(Cc4ccc(F)cc4)c3c2)cn(C)c1=O,pIC50,[2],5.25
same,pIC50,[3],5.65
Cc1ccc(Cn2nc(Nc3ccc(F)cc3)c3ccc(-c4c(C)noc4C)cc32)cc1,inhibition,[1],< 20%
CNc1cc(-c2ccc3cnn(Cc4ccc(OC)cc4)c3c2)cn(C)c1=O,pIC50,[2],5.57
same,pIC50,[3],5.80
CNc1cc(-c2ccc3cnn(CC4CC4)c3c2)cn(C)c1=O,pIC50,[2],5.46
same,pIC50,[3],5.71
COc1ccc(CN2CC(c3ccc(O)cc3)c3cnc(-c4c(C)noc4C)nc32)cc1 (centres undefined),inhibition,[1],< 20%
CNc1cc(-c2ccc3cnn(CC4CCCCC4)c3c2)cn(C)c1=O,pIC50,[2],5.57
same,pIC50,[3],5.74
Cc1ccc(Cn2nc(Nc3ccc(C(F)(F)F)cc3)c3ccc(-c4c(C)noc4C)cc32)cc1,inhibition,[1],< 20%
CNc1cc(-c2ccc3cnn(Cc4ccc(C)cc4)c3c2)cn(C)c1=O,pIC50,[2],5.48
same,pIC50,[3],5.80
